The assay deals with T1, PDGFRA T674I (Homo sapiens, UniProt P16234, T674I).
T1 construct: purchased Thermo Fisher Scientific (Life Technologies) SelectScreen
Nature of the assay: SelectScreen Z'LYTE. The class given is biochemical. The method, boiled down:
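NU5455 was profiled across the SelectScreen Broad panel of kinase activity and binding assays. Z'LYTE reactions such as CSF1R ran at apparent Km ATP, while the Adapta CAMK1 assay used ATP listed as 10. Values are given as percent.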

T1 sequence (P16234 24-1089 T674I): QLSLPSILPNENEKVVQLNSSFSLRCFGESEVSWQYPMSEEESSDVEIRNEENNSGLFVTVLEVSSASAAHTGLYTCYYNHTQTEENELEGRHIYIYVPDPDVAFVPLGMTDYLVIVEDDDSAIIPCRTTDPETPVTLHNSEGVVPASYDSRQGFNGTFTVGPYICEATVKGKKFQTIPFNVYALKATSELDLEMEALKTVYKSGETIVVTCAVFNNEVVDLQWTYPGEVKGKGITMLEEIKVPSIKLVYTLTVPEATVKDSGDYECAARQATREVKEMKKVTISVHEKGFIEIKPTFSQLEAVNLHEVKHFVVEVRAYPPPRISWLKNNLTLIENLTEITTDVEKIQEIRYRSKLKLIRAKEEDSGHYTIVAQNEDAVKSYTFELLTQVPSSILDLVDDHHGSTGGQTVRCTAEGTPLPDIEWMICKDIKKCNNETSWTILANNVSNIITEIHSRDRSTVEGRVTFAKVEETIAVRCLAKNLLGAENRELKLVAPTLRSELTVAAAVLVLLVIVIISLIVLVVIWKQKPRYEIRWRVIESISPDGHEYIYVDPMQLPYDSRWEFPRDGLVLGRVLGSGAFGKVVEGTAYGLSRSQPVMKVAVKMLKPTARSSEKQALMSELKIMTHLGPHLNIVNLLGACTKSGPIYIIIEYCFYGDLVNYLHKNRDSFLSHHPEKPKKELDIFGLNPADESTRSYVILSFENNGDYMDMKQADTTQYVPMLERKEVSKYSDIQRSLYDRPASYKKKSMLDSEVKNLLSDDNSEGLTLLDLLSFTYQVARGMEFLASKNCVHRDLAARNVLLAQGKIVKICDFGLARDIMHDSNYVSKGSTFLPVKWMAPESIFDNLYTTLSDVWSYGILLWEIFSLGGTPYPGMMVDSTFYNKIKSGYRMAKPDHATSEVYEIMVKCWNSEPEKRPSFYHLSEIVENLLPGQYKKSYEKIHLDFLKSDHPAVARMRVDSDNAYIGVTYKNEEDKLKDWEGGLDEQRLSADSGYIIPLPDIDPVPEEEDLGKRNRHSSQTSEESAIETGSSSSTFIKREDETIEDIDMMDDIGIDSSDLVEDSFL

As to `CN(C(=O)CN1CCOCC1)c1ccc2sc3c(-c4cccc5c(=O)cc(N6CC7CCC(C6)O7)oc45)cccc3c2c1` [NU5455], the inhibition at 1 µM was -8.9%.

Values taken from paper PMC6934184, “Selective DNA-PKcs inhibition extends the therapeutic index of localized radiotherapy and chemotherapy” (The Journal of Clinical Investigation, 2019).
